Results reported in US9839642B2, “Beta-tetrazolyl-propionic acids as metallo-beta-lactamase inhibitors” (priority 2014, dated 2017).
Where two headings read alike, the source gives them in different places.

Assays:
[1] = system: Escherichia coli expressing NDM-1 (CLB30016); experiment: Antibiotic potentiation activity: synergistic concentration (MITC95) with imipenem, growth by OD600; assay type: cell-based
Method in brief: (§1)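 Colonies from overnight agar plates (35 °C) were suspended in saline and diluted 1:100 into 1.1× CAMHB. Inhibitor (final 200 μM to 0.195 μM) was combined with imipenem at 1 or 4 μg/ml, incubated 22–24 h at 35 °C, and absorbance read; MITC95 is the lowest inhibitor concentration giving 95% growth inhibition.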

[2] = system: Klebsiella pneumoniae expressing VIM-1 (IHMA599644); experiment: as above; assay type: cell-based
Method in brief: as §1

[3] = system: Serratia marcescens expressing IMP-1 (CL5741); experiment: as above; assay type: cell-based
Method in brief: as §1

VIM-1 = VIM-1 (Pseudomonas aeruginosa, UniProt A0A0F7KYQ8); experiment: Enzyme activity: determination of IC50, fluorescence assay with CCF2-FA substrate; assay type: biochemical; conditions: CCF2-FA 1.25 μM, 2 hours at 25° C., read-out: VIM1 IC50
Method in brief: (§2)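 Enzyme at 1 pM (NDM-1), 2 pM (IMP-1) or 30 pM (VIM-1) was incubated with inhibitor (20 μM to 0.00063 μM) and 1.25 μM CCF2-FA in 100 mM KH2PO4 pH 7, 0.005% Tween-20, 10 μM ZnSO4 for 2 hours at 25° C. Fluorescence was read at ex 405/em 460 nm; IC50 from 4-parameter fit.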

NDM-1 = NDM-1 (Klebsiella pneumoniae, UniProt C7C422); experiment: as above; assay type: biochemical; conditions: CCF2-FA 1.25 μM, 2 hours at 25° C., read-out: NDM1 IC50
Chain of NDM-1 (C7C422 29-270, looked up, species assumed): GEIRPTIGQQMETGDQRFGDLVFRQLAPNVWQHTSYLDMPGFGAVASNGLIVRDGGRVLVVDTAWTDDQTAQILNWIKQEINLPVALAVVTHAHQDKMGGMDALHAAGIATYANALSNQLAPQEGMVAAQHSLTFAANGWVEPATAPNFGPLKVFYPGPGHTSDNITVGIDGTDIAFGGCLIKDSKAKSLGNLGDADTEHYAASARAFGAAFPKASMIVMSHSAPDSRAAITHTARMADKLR
Method in brief: as §2

IMP-1 = IMP-1 (Serratia marcescens, UniProt P52699); experiment: as above; assay type: biochemical; conditions: CCF2-FA 1.25 μM, 2 hours at 25° C., read-out: IMP1 IC50
Chain of IMP-1 (P52699 19-246, looked up, species assumed): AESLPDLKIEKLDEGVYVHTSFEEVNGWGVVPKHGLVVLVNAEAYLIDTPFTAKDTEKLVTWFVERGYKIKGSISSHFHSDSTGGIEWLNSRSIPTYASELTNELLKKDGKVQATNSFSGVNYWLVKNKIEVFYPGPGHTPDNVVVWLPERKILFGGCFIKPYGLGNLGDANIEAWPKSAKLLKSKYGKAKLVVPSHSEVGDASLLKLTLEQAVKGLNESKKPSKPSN
Method in brief: as §2

[4] = 95% inhibition of bacterial growth, strain CLB30016
[5] = 95% inhibition of bacterial growth, strain IHMA599644
[6] = 95% inhibition of bacterial growth, strain CL5741
[7] = E. coli CLB30016 (NDM-1), 95% inhibition of growth
[8] = K. pneumoniae IHMA599644 (VIM-1), 95% inhibition of growth
[9] = S. marcescens CL5741 (IMP-1), 95% inhibition of growth

Row | Compound | NDM1 EC30016 MITC95 [1, 4] [µM] | VIM1 KP599644 MITC95 [2, 5] [µM] | IMP1 SM5741 MITC95 [3, 6] [µM] | IC50 (VIM-1; enzyme 30 pM) [nM] | IC50 (NDM-1; enzyme 1 pM) [nM] | IC50 (IMP-1; enzyme 2 pM) [nM] | NDM1 EC30016 MITC95 [1, 7] [µM] | VIM1 KP599644 MITC95 [2, 8] [µM] | IMP1 SM5741 MITC95 [3, 9] [µM] | IC50 (VIM-1; VIM-1 enzyme 30 pM) [nM] | IC50 (NDM-1; NDM-1 enzyme 1 pM) [nM] | IC50 (IMP-1; IMP-1 enzyme 2 pM) [nM]
1 | CCC[C@H](C(=O)O)[C@H](Cc1ccc(NC(C)CN(C)C)cc1)c1nn[nH]n1 (stereo partly drawn) [Example 224, (2S)-2-[(1S)-2-(4-{[2-(dimethylamino)-1-methylethyl]amino}phenyl)-1-(2H-tetrazol-5-yl)ethyl]pentanoic acid] | 25 | 50 | 18.8 | 82 | 1000 | 1100 | – | – | – | – | – | –
2 | CCC[C@H](C(=O)O)[C@H](Cc1ccc(N2CCN(CCO)CC2)cc1)c1nn[nH]n1 [Example 225, (2S)-2-[(1S)-2-{4-[4-(2-hydroxyethyl)piperazin-1-yl]phenyl}-1-(2H-tetrazol-5-yl)ethyl]pentanoic acid] | 25 | 50 | 12.5 | 66 | 110 | 280 | – | – | – | – | – | –
3 | CCC[C@H](C(=O)O)[C@H](Cc1ccc(N2CCN(c3ccccc3)CC2)cc1)c1nn[nH]n1 [Example 226, (2S)-2-[(1S)-2-[4-(4-phenylpiperazin-1-yl)phenyl]-1-(2H-tetrazol-5-yl)ethyl]pentanoic acid] | 38 | >200 | 3.1 | 66 | 20 | 39 | – | – | – | – | – | –
4 | CCC[C@H](C(=O)O)[C@H](Cc1ccc(N2CCN(c3ccncc3)CC2)cc1)c1nn[nH]n1 [Example 227, (2S)-2-[(1S)-2-[4-(4-pyridin-4-ylpiperazin-1-yl)phenyl]-1-(2H-tetrazol-5-yl)ethyl]pentanoic acid] | 16 | 75 | 12.5 | 51 | 54 | 380 | – | – | – | – | – | –
5 | CCC[C@H](C(=O)O)[C@H](Cc1ccc(N2CCN(C(C)=O)CC2)cc1)c1nn[nH]n1 [Example 228, (2S)-2-[(1S)-2-[4-(4-acetylpiperazin-1-yl)phenyl]-1-(2H-tetrazol-5-yl)ethyl]pentanoic acid] | 75 | 200 | 16 | 15 | 33 | 220 | – | – | – | – | – | –
6 | CCC[C@H](C(=O)O)[C@H](Cc1ccc(N2CCC[C@@H](N)C2)cc1)c1nn[nH]n1 [Example 229, (2S)-2-[(1S)-2-{4-[(3R)-3-aminopiperidin-1-yl]phenyl}-1-(2H-tetrazol-5-yl)ethyl]pentanoic acid] | 12.5 | 25 | 25 | 25 | 370 | 1200 | – | – | – | – | – | –
7 | CCC[C@H](C(=O)O)[C@H](Cc1ccc(N2CCC[C@H](N)C2)cc1)c1nn[nH]n1 [Example 230, (2S)-2-[(1S)-2-{4-[(3S)-3-aminopiperidin-1-yl]phenyl}-1-(2H-tetrazol-5-yl)ethyl]pentanoic acid] | 31 | 25 | 25 | 25 | 300 | 1100 | – | – | – | – | – | –
8 | CCC[C@H](C(=O)O)[C@H](Cc1ccc(N2CCN(C)CC2)cc1)c1nn[nH]n1 [Example 231, (2S)-2-[(1S)-2-[4-(4-methylpiperazin-1-yl)phenyl]-1-(2H-tetrazol-5-yl)ethyl]pentanoic acid] | 18.8 | 50 | 18.8 | 69 | 160 | 450 | – | – | – | – | – | –
9 | CCC[C@H](C(=O)O)[C@H](Cc1ccc(N2CCN3CCCC3C2)cc1)c1nn[nH]n1 (stereo partly drawn) [Example 232, (2S)-2-[(1S)-2-[4-(hexahydropyrrolo[1,2-a]pyrazin-2(1H)-yl)phenyl]-1-(2H-tetrazol-5-yl)ethyl]pentanoic acid] | 12.5 | 50 | 12.5 | 90 | 180 | 420 | – | – | – | – | – | –
10 | CC(C)(C)[C@H](C(=O)O)[C@H](Cc1ccccc1)c1nnn[nH]1 [Example 258, (2R,3S)-2-(tert-butyl)-4-phenyl-3-(1H-tetrazol-5-yl)butanoic acid] | – | – | – | – | – | – | 11 | 100 | 2.3 | 100 | 91 | 35
11 | CCC[C@H](C(=O)O)[C@H](Cc1ccccc1F)c1nnn[nH]1 [Example 259, (S)-2-((S)-2-(2-fluorophenyl)-1-(1H-tetrazol-5-yl)ethyl)pentanoic acid] | – | – | – | – | – | – | 9.4 | 12.5 | 12.5 | 4.2 | 37 | 930
12 | CCC[C@H](C(=O)O)[C@H](Cc1cccc(F)c1)c1nnn[nH]1 [Example 260, (2S)-2-[(1S)-2-(3-fluorophenyl)-1-(1H-tetrazol-5-yl)ethyl]pentanoic acid] | – | – | – | – | – | – | 6.2 | 18.8 | 12.5 | 3.7 | 75 | 870
13 | CCC[C@H](C(=O)O)[C@H](Cc1ccc(F)cc1)c1nnn[nH]1 [Example 261, (2S)-2-[(1S)-2-(4-fluorophenyl)-1-(1H-tetrazol-5-yl)ethyl]pentanoic acid] | – | – | – | – | – | – | 9.4 | 12.5 | 12.5 | 3.8 | 110 | 910
14 | CCC[C@H](C(=O)O)[C@H](Cc1ccc(F)cc1F)c1nnn[nH]1 [Example 262, (2S)-2-[(1S)-2-(2,4-difluorophenyl)-1-(1H-tetrazol-5-yl)ethyl]pentanoic acid] | – | – | – | – | – | – | 6.2 | 12.5 | 18.8 | 3.1 | 70 | 1300
15 | CCC[C@H](C(=O)O)[C@H](Cc1ccc(Cl)cc1)c1nnn[nH]1 [Example 263, (2S)-2-[(1S)-2-(4-chlorophenyl)-1-(1H-tetrazol-5-yl)ethyl]pentanoic acid] | – | – | – | – | – | – | 9.4 | 9.4 | 12.5 | 2.4 | 57 | 430
16 | CCC[C@H](C(=O)O)[C@H](Cc1cccnc1)c1nnn[nH]1 [Example 264, (S)-2-((S)-2-(pyridin-3-yl)-1-(1H-tetrazol-5-yl)ethyl)pentanoic acid] | – | – | – | – | – | – | 2.3 | 18.8 | 100 | 16 | 370 | 7100
17 | CCC[C@H](C(=O)O)[C@H](C[C@@H](C)c1ccccc1)c1nnn[nH]1 [Example 265, (2S,3S,5R)-5-phenyl-2-propyl-3-(1H-tetrazol-5-yl)hexanoic acid] | – | – | – | – | – | – | 18.8 | 75 | 50 | 24 | 130 | 1800
18 | CCC[C@H](C(=O)O)[C@H](CCc1ccccc1)c1nnn[nH]1 [Example 266, (2S,3S)-5-phenyl-2-propyl-3-(1H-tetrazol-5-yl)pentanoic acid] | – | – | – | – | – | – | 12.5 | 25 | 38 | 20 | 190 | 1000
